Measured values as given in ChEMBL document CHEMBL4152208, “Synthesis and structure-activity relationships of quinolinone and quinoline-based P2X7 receptor antagonists and their anti-sphere formation activities in glioblastoma cells” (Eur J Med Chem, 2018).
Calls of active or inactive are those of the source. The calls are words filed in the database; no cut-off is given here.

Columns and labels:
[1] = Inhibition of neurosphere formation in human TS15-88 cells assessed as decrease in sphere size at 50 uM after 5 days by microscopic analysis relative to control; format: functional; conditions: 120 h
[2] = biological target: T1, P2X purinoceptor 7 (Homo sapiens) (UniProt Q99572); test: Antagonist activity at human P2X7 receptor expressed in HEK293 cells assessed as inhibition of BzATP-induced EtBr uptake at 1 uM after 2 hrs by fluorescence assay relative to control; format: cell-based
T1 sequence (whole entry): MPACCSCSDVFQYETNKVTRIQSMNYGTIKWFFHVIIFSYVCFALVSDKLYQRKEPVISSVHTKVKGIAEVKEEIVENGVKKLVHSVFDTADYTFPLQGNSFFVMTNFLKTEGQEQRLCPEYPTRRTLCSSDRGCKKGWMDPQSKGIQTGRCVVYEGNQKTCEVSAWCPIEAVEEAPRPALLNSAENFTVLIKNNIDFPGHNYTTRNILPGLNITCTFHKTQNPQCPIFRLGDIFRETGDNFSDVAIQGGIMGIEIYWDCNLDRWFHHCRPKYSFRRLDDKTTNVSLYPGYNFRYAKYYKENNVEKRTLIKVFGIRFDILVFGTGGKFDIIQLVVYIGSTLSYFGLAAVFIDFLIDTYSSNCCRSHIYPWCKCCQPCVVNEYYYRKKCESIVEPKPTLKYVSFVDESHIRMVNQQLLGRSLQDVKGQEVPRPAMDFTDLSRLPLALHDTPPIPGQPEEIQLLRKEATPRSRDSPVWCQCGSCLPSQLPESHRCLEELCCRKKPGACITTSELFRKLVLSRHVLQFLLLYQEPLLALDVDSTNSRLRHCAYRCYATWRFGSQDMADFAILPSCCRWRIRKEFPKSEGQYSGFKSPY

Homo sapiens [3] = species: Homo sapiens; test: Antiproliferative activity against human TS15-88 cells at 50 uM after 24 hrs by MTS assay; format: functional, cell-based
P2X purinoceptor 7 [4] = biological target: T2, P2X purinoceptor 7 (Homo sapiens, UniProt Q99572); test: Antagonist activity at P2X7 in LPS/IFN gamma differentiated human THP-1 cells assessed as inhibition of BzATP-induced IL-1beta release preincubated for 30 mins followed by BzATP stimulation for 30 mins by ELISA; format: cell-based
T2 sequence (Q99572 whole entry): T1 sequence (whole entry)

Homo sapiens [5] = species: Homo sapiens; test: Antiproliferative activity against human TS15-88 cells at 50 uM after 72 hrs by MTS assay; format: functional, cell-based
P2X purinoceptor 7 [6] = biological target: T2, P2X purinoceptor 7; test: Antagonist activity at human P2X7 receptor expressed in HEK293 cells assessed as inhibition of BzATP-induced EtBr uptake after 2 hrs by fluorescence assay relative to control; format: cell-based
[7] = biological target: T1, P2X purinoceptor 7 (Homo sapiens); test: Antagonist activity at human P2X7 receptor expressed in HEK293 cells assessed as inhibition of BzATP-induced EtBr uptake at 10 uM after 2 hrs by fluorescence assay relative to control; format: cell-based
[8] = Cytotoxicity against HEK293 cells expressing human P2X7 receptor assessed as cell survival at 10 uM by MTT assay relative to control; format: cell-based; conditions: read-out: Survival
[9] = Antiproliferative activity against human TS15-88 cells after 24 to 72 hrs by MTS assay; format: functional, cell-based
P2X purinoceptor 7 [10] = biological target: T2, P2X purinoceptor 7; test: Antagonist activity at human P2X7 receptor in expressed in HEK293 cells assessed as inhibition of BzATP-induced EtBr uptake; format: cell-based
[11] = biological target: T3, P2X purinoceptor 2 (Homo sapiens) (UniProt Q9UBL9); test: Antagonist activity at human P2X2 receptor expressed in 1321N1 cells assessed as inhibition of ATP-induced calcium flux at 1 uM measured for 30 secs at 0.4 secs intervals by Flou-4-AM dye based fluorescence assay relative to control; format: cell-based
T3 sequence (whole entry): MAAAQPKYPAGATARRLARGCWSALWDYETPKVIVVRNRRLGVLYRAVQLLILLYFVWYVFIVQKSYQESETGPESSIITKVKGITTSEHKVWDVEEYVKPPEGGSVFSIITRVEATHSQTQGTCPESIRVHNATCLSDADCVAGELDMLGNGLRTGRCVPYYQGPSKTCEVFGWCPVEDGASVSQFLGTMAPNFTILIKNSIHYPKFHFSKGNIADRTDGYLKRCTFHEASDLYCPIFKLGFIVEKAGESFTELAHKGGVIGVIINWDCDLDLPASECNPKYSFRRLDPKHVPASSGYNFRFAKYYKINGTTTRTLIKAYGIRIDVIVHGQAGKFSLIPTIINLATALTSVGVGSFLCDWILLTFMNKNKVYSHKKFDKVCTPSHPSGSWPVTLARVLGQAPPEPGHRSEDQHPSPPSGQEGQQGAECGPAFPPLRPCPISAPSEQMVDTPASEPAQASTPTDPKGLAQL

P2X purinoceptor 3 = biological target: T4, P2X purinoceptor 3 (Homo sapiens, UniProt P56373); test: Antagonist activity at human P2X3 receptor expressed in 1321N1 cells assessed as inhibition of ATP-induced calcium flux measured for 30 secs at 0.4 secs intervals by Flou-4-AM dye based fluorescence assay; format: cell-based; conditions: read-out: IC50
T4 sequence (P56373 whole entry): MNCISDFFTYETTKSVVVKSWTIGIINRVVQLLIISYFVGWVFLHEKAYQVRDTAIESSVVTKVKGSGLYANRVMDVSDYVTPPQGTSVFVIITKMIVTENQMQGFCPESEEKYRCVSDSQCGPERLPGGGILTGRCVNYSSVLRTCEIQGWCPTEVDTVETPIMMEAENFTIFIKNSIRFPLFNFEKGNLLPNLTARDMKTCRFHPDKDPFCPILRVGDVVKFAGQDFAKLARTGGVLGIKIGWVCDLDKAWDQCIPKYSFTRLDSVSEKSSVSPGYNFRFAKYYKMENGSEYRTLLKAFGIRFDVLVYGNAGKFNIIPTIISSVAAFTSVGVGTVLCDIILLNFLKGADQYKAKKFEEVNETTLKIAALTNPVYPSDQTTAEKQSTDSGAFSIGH

[12] = biological target: T5, P2X purinoceptor 1 (Homo sapiens) (UniProt P51575); test: Antagonist activity at human P2X1 receptor expressed in 1321N1 cells assessed as inhibition of ATP-induced calcium flux at 1 uM measured for 30 secs at 0.4 secs intervals by Flou-4-AM dye based fluorescence assay relative to control; format: cell-based
T5 sequence (whole entry): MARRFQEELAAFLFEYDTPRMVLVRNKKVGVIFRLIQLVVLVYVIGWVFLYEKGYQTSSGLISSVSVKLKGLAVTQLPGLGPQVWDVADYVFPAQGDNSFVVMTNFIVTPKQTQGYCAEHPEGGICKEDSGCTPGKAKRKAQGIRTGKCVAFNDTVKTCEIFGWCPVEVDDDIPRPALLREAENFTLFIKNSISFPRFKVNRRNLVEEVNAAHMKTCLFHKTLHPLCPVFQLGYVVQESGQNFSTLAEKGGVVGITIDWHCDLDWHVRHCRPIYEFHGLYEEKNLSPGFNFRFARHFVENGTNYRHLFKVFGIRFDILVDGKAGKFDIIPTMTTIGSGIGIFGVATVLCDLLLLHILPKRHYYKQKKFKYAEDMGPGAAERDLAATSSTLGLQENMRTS

[13] = biological target: T6, P2X purinoceptor 4 (Homo sapiens) (UniProt Q99571); test: Antagonist activity at human P2X4 receptor expressed in 1321N1 cells assessed as inhibition of ATP-induced calcium flux at 1 uM measured for 30 secs at 0.4 secs intervals by Flou-4-AM dye based fluorescence assay relative to control; format: cell-based
T6 sequence (whole entry): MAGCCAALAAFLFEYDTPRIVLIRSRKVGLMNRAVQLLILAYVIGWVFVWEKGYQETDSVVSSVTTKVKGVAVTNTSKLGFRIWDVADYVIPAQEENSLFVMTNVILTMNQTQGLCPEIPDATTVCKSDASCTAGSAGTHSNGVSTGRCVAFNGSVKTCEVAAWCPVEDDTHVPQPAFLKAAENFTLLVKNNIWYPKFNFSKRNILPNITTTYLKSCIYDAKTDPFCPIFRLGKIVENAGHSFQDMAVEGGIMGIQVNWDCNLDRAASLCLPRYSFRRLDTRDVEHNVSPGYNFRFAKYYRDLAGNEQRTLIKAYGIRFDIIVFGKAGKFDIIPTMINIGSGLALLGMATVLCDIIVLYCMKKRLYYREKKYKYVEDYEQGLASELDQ

[14] = Kinetic solubility of the compound in PAMPA buffer at 50 uM by nepheolometry method; format: physicochemical
[15] = Effective permeability of the compound at 50 uM after 4 hrs by BBB-PAMPA method; format: ADME; conditions: read-out: Peff
[16] = Metabolic stability in human liver microsomes assessed as parent compound remaining at 1 uM up to 30 mins in presence of NADPH by LC-MS/MS analysis; format: ADME, microsome; conditions: read-out: Stability
[17] = Metabolic stability in mouse liver microsomes assessed as parent compound remaining at 1 uM up to 30 mins in presence of NADPH by LC-MS/MS analysis; format: ADME, microsome; conditions: read-out: Stability
[18] = Kinetic solubility of the compound in PAMPA buffer at 12.5 uM by nepheolometry method; format: physicochemical
[19] = Kinetic solubility of the compound in PAMPA buffer at 25 uM by nepheolometry method; format: physicochemical
[20] = Metabolic stability in rat liver microsomes assessed as parent compound remaining at 1 uM up to 30 mins in presence of NADPH by LC-MS/MS analysis; format: ADME, microsome; conditions: read-out: Stability
[21] = biological target: T1, P2X purinoceptor 7 (Homo sapiens); test: Antagonist activity at P2X7 in LPS/IFN gamma differentiated human THP-1 cells assessed as inhibition of BzATP-induced IL-1beta release at 1 uM preincubated for 30 mins followed by BzATP stimulation for 30 mins by ELISA; format: cell-based
[22] = biological target: T1, P2X purinoceptor 7 (Homo sapiens); test: Antagonist activity at P2X7 in LPS/IFN gamma differentiated human THP-1 cells assessed as inhibition of BzATP-induced IL-1beta release at 10 uM preincubated for 30 mins followed by BzATP stimulation for 30 mins by ELISA; format: cell-based

| SMILES | inhibition at 50 µM [1] [%] | inhibition [2] [%] | Activity (Homo sapiens [3]) | IC50 (P2X purinoceptor 7 [4]) [nM] | Activity (Homo sapiens [5]) | IC50 (P2X purinoceptor 7 [6]) [nM] | inhibition [7] [%] | viability at 10 µM [8] [%] | IC50 (P2X purinoceptor 7 [10]) [nM] | Kinetic_solubility [14] | Papp at 4 h, 50 µM [15] [×10⁻⁶ cm/s] | remaining at 0.5 h, 1 µM [16] [%] | remaining at 0.5 h, 1 µM [17] [%] | Kinetic_solubility [18] | Kinetic_solubility [19] | remaining at 0.5 h, 1 µM [20] [%] | also measured |
| --- | --- | --- | --- | --- | --- | --- | --- | --- | --- | --- | --- | --- | --- | --- | --- | --- | --- |
| COC(=O)c1ccc(-c2ccc3c(NC(=O)CC45CC6CC(CC(C6)C4)C5)cccc3n2)cc1 | > 50 | 90 | Active | 33 | Active | 7 | 95 | 97 |  |  |  |  |  |  |  |  | IC50 [9]: 35600 nM |
| N[C@H]1CCN(Cc2ccc(Cl)c(C(=O)NCC34CC5CC(CC(C5)C3)C4)c2)C1 |  |  |  |  |  |  |  |  | 85 |  |  |  |  |  |  |  |  |
| Clc1cccc(-c2nnnn2Cc2cccnc2)c1Cl |  |  |  |  |  |  |  |  | 300 |  |  |  |  |  |  |  |  |
| COc1ccc(-c2ccc3c(NC(=O)CC45CC6CC(CC(C6)C4)C5)cccc3n2)cc1 | > 50 | 89 | inactive | 29 | Active | 18 | 97 | 90 |  |  |  |  |  |  |  |  | inhibition [11]: 3%; IC50 (P2X purinoceptor 3): 3000 nM; inhibition [12]: 25%; inhibition [13]: 17% |
| O=C1NC(=O)C(C2CCN(C(=O)c3ccc(Cl)c(C(F)(F)F)c3)CC2)C1Cc1ccc(OS(=O)(=O)c2cccc3cnccc23)cc1 (configuration not stated) |  |  |  |  |  |  |  |  | 54 |  |  |  |  |  |  |  |  |
| Nc1ccc(-c2ccc3c(NC(=O)CC45CC6CC(CC(C6)C4)C5)cccc3n2)cc1 | > 50 | 85 | Active | 19 | Active | 10 | 93 | 98 |  | Soluble | 24.9 | 15.5 | 13.3 | Soluble | Soluble | 10.6 |  |
| CC(=O)[C@H]1CC[C@H]2[C@@H]3CCC4=CC(=O)CC[C@]4(C)[C@H]3CC[C@]12C [PROGESTERONE] |  |  |  |  |  |  |  |  |  |  | 36.6 |  |  |  |  |  | IC50 (P2X purinoceptor 3): 1600 nM |
| O=C(CC12CC3CC(CC(C3)C1)C2)Nc1cccc2nc(-c3ccc(CO)cc3)ccc12 | > 50 | 95 | Active | 12 | Active | 3 | 98 | 95 |  | Soluble | 17.7 | 17.9 | 17 | Soluble | Soluble | 11.2 |  |
| O=C(CC12CC3CC(CC(C3)C1)C2)Nc1cccc2nc(-c3ccc(O)cc3)ccc12 | > 50 | 79 | Active | 6 | Active | 8 | 95 | 94 |  | Soluble | 16.4 | 21.5 | 14.5 | Soluble | Soluble | 12.9 | IC50 [9]: 25600 nM |
| COC(=O)c1cc2c(NC(=O)C34CC5CC(CC(C5)C3)C4)cccc2n(Cc2ccc(OC)cc2)c1=O |  | 76 |  |  |  | 120 | 87 |  |  |  |  |  |  |  |  |  | inhibition [21]: inactive; inhibition [22]: 49% |
